Like-named read-outs stand apart in the source and are kept apart here.

The conditions of series [1]: pig microsomes.
The test system of another series is mouse model of asthma. Briefly: Mouse model of asthma (House Dust Mite antigen sensitization and rechallenge). The settings on record: treated upon intratracheal rechallenge. The format is in vivo, mice. How it is done: Mice were sensitized to House Dust Mite antigen (HDM) in the absence of drug. Upon intratracheal rechallenge the mice were treated with vehicle or 25.

For series [2] the following is noted: human microsomes.
The subject of a further series is Neuromyelitis Optica. Briefly: Neuromyelitis optica model (adoptive transfer of auto-reactive T cells). Set-up: species or system mice. The settings on record: mouse, in vivo. The method, then:
Auto-reactive T cells were adoptively transferred into mice treated with PBS or 25 and mean paralysis scores were measured.

Another series has as its system 4T1-Luc tumor cells. Briefly: 4T1-Luc mammary tumor model: myeloid cells, TAM and fibrocytes by flow cytometry. The format is in vivo, BALB/c mice. The conditions noted are these: 1 mg/kg daily from day 7 to day 17. How it is done: 4T1-Luc tumor cells (0.1 million) were injected into the mammary fat pads of 8-week-old female BALB/c mice. Mice received vehicle (PBS) or 1 mg/kg 25 daily from day 7 to day 17. Anti-PD1 antibody (5 mg/Kg) was administered i.p. on day 5, 8, 12 and 17. Percentages of myeloid-derived suppressor cell (MDSC) from circulating blood were monitored on day 6, 9 and 17 by flow cytometry with CD11b and Ly6C/Ly6G. Granulocytic MDSC (G-MDSC): CD11b+ Ly6g+ Ly6c low Monocytic MDSC (Mo-MDSC): CD11b+ Ly6G-Ly6c Hi.
4T1-Luc tumor cells (0.2 million) were injected into the mammary fat pads of 8-week-old female BALB/c mice. Mice received vehicle (PBS) or 1 mg/kg compound 25 daily from day 7 to day 17. Anti-PD1 antibody (5 mg/Kg) was administered on day 5, 8, 12 and 17. Tumors were evaluated for tumor infiltrating cells on day 21. Cells were seeded on plates and golgi plug 200 ul were added to inhibit cytokine secretion for overnight (no additional stimulation). Tumor associated macrophages markers: Live/CD45+/CD11b+/F4-80+/CD8− for flow cytometry analysis. Macrophages derived from tumor. The cells were incubated with Golgi plug o.n. w/o stim. TAM: Live/CD45+/CD11b+/F4-80+/CD8−.
4T1-Luc tumor cells (0.1 million) were injected into the mammary fat pads of 8-week-old female BALB/c mice. Mice received vehicle (PBS) or 1 mg/kg 25 daily from day 7 to day 17. Anti-PD1 antibody (5 mg/Kg) was administered on day 5, 8, 12 and 17. Tumors were evaluated for tumor infiltrating cells on day 21. Fibrocytes markers: CollagenI+CD11b+CD45+ live were used for flow cytometry analysis.

The next series relates to EAE. Put plainly: Multiple sclerosis model (EAE, C57BL/6+MOG35-55). It is filed as in vivo, mice. How it is done:
FIG. 21A and FIG. 21B show the targeting of glutamine metabolism in multiple sclerosis. Animals were immunized for EAE (C57BL/6+MOG35-55). Mice were treated with vehicle or 25 either q.d. from the day of immunization (day 0, left), or b.d. from the time of disease onset (EAE disease score≥1, right).

For `CCOC(=O)[C@H](CCC(=O)C=[N+]=[N-])NC(=O)[C@@H](N)CC(C)C` [Compound 25], the liver microsomal stability entry in series [1] is “moderate-high stability”. In addition, in the series with mouse model of asthma, the “levels of HDM specific IgE” value was “reduced”, the lung pathology result was “inhibited pathology” and the “recruitment/generation of Th2 cells” value is listed as “inhibited”. In addition, the liver microsomal stability entry in series [2] was “moderate-high stability”. In addition, the mean paralysis scores entry in the series with Neuromyelitis Optica is recorded as “unexpected effectiveness”. Also, in the series with 4T1-Luc tumor cells (anti-PD1 antibody also given), the “CD11b+ cells and G-MDSCs in circulating blood” value was “reduced CD11b+ cells and G-MDSCs”. In the series with 4T1-Luc tumor cells (tumors evaluated day 21), the “TNF alpha in tumor associated macrophages” value is on record as “increased TNF alpha” and the tumor infiltrating fibrocytes result is on record as “reduced fibrocytes”. Moreover, the “EAE disease, treatment” value in the series with EAE (b.d. from the time of disease onset (EAE disease score≥1)) is given as “unexpected effectiveness”. Moreover, the “EAE disease, prevention” value with EAE (q.d. from the day of immunization (day 0)) is recorded as “unexpected effectiveness”.

(Values after patent US10568868B2, “Methods and compositions for treating metabolic reprogramming disorders” (THE JOHNS HOPKINS UNIVERSITY, priority 2015, dated 2020).)
